pEC50, pIC50, pKi: −log10 of the molar value.
Columns and labels:
Melanocortin receptor 4 [1] = target: T1, Melanocortin receptor 4 (Homo sapiens, UniProt P32245); test: Displacement of […]NDPMSH from human MC4R expressed in HEK293 cells; assay type: cell-based
Melanocortin receptor 4 [2] = target: T1, Melanocortin receptor 4; test: Agonist activity at MC4R assessed as stimulation of cAMP release relative to alphaMSH; assay type: functional
Melanocortin receptor 4 [3] = target: T1, Melanocortin receptor 4; test: Antagonist activity at MC4R assessed as inhibition of alpha-MSH-stimulated cAMP release; assay type: functional
[4] = target: Melanocyte-stimulating hormone receptor (Homo sapiens, UniProt Q01726); test: Binding affinity to MC1R
Chain of Melanocyte-stimulating hormone receptor (Q01726 whole entry): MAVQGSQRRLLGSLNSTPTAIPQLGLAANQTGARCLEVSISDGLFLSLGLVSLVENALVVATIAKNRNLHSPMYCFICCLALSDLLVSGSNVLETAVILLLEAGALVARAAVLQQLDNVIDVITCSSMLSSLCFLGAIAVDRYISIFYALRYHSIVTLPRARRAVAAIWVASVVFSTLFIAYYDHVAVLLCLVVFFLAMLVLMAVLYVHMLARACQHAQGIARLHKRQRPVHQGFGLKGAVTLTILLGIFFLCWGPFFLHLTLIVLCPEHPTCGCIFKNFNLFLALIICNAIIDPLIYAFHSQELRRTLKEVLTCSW

Melanocortin receptor 3 = Melanocortin receptor 3 (Homo sapiens, UniProt P41968); test: Binding affinity to MC3R
Chain of Melanocortin receptor 3 (P41968 whole entry): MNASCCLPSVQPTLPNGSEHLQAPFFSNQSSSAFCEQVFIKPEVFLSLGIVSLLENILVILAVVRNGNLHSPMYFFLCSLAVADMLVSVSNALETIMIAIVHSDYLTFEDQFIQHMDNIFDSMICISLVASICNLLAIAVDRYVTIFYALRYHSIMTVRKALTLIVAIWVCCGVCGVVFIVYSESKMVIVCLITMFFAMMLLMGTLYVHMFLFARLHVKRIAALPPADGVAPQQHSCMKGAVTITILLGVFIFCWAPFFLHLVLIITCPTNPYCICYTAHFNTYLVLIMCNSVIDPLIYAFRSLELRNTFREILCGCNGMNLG

Melanocortin receptor 5 = Melanocortin receptor 5 (Homo sapiens, UniProt P33032); test: Binding affinity to MC5R
Chain of Melanocortin receptor 5 (P33032 whole entry, looked up): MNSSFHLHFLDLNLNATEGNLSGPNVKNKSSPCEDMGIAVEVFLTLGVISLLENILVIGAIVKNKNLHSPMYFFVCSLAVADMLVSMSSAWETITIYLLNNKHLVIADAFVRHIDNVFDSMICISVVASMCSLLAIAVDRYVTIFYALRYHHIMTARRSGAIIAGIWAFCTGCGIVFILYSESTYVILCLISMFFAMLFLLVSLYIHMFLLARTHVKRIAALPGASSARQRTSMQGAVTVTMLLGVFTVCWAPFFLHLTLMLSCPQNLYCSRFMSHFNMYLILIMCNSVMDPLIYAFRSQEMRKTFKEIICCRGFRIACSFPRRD

Melanocortin receptor 4 [5] = target: Melanocortin receptor 4 (Mus musculus, UniProt P56450); test: Binding affinity to mouse MC4R
Chain of Melanocortin receptor 4 (Mus musculus, UniProt P56450) (P56450 whole entry): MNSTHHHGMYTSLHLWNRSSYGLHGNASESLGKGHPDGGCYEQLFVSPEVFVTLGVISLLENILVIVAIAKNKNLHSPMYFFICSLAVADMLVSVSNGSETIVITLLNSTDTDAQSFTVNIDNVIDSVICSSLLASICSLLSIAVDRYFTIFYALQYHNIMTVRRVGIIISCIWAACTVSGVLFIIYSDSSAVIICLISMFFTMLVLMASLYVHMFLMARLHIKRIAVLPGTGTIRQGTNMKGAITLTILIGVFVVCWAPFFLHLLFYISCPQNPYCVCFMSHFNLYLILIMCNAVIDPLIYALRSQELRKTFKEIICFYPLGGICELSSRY

Melanocortin receptor 4 [6] = target: T1, Melanocortin receptor 4; test: Agonist activity at MC4R assessed as stimulation of cAMP release; assay type: functional

T1 sequence (P32245 whole entry): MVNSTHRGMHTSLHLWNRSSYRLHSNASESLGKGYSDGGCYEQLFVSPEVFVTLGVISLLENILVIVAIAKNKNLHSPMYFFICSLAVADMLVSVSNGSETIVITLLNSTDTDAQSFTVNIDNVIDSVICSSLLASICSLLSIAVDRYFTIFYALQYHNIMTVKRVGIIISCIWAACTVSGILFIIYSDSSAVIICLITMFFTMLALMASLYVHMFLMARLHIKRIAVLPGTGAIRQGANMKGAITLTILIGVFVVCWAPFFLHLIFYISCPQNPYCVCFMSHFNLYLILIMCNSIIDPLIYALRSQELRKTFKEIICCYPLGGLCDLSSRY

SMILES | pKi (Melanocortin receptor 4 [1]) | Intrinsic activity (Melanocortin receptor 4 [2]) [%] | pIC50 (Melanocortin receptor 4 [3]) | pKi [4] | pKi (Melanocortin receptor 3) | pKi (Melanocortin receptor 5) | pKi (Melanocortin receptor 4 [5]) | pEC50 (Melanocortin receptor 4 [6])
O=C([C@H]1CN(C2CCCCC2)C[C@@H]1c1ccc(Cl)cc1)N1CCN(C2(CNCc3ccccc3)CCCCC2)CC1 | 8.26 | 16 | 6.89 | – | – | – | – | 5.82
CC(C)N1C[C@H](C(=O)N2CCN(C3(CNCc4ccoc4)CCCCC3)CC2)[C@@H](c2ccc(Cl)cc2)C1 | 7.12 | 53 | – | – | – | – | – | 6.32
CC(C)N1C[C@H](C(=O)N2CCN(C3(CNCc4ccccn4)CCCCC3)CC2)[C@@H](c2ccc(Cl)cc2)C1 | 7.12 | 34 | – | – | – | – | – | 5.92
CC(C)N1C[C@H](C(=O)N2CCN(C3(CNCc4ccccc4F)CCCCC3)CC2)[C@@H](c2ccc(Cl)cc2)C1 | 7.92 | 48 | – | – | – | – | – | 6.24
O=C([C@H]1CN(C2CCOCC2)C[C@@H]1c1ccc(Cl)cc1)N1CCN(C2(CNCc3ccccc3)CCCCC2)CC1 | 7.54 | 70 | – | – | – | – | – | 6.00
COc1ccc(CNCC2(N3CCN(C(=O)[C@H]4CN(C(C)C)C[C@@H]4c4ccc(Cl)cc4)CC3)CCCCC2)c(F)c1 | 8.74 | 26 | – | – | – | – | – | 5.80
CC(C)N1C[C@H](C(=O)N2CCN(C3(CNCc4c[nH]cn4)CCCCC3)CC2)[C@@H](c2ccc(Cl)cc2)C1 | 6.66 | 49 | – | – | – | – | – | 6.96

More lines, in order of rising pKi (Melanocortin receptor 4 [1]), values ahead:

pKi (Melanocortin receptor 4 [1]) | Intrinsic activity (Melanocortin receptor 4 [2]) [%] | pIC50 (Melanocortin receptor 4 [3]) | pKi [4] | pKi (Melanocortin receptor 3) | pKi (Melanocortin receptor 5) | pKi (Melanocortin receptor 4 [5]) | pEC50 (Melanocortin receptor 4 [6]) | SMILES
6.66 | 66 | – | – | – | – | – | 6.66 | CC(C)N1C[C@H](C(=O)N2CCN(C3(CNCc4cncnc4)CCCCC3)CC2)[C@@H](c2ccc(Cl)cc2)C1
7.43 | 58 | – | – | – | – | – | 6.23 | CC(C)N1C[C@H](C(=O)N2CCN(C3(CNCc4cccs4)CCCCC3)CC2)[C@@H](c2ccc(Cl)cc2)C1
7.57 | 27 | 6.39 | – | – | – | – | 6.11 | CC(C)N1C[C@H](C(=O)N2CCN(C3(CNCc4ccncc4)CCCCC3)CC2)[C@@H](c2ccc(Cl)cc2)C1
9.30 | 10 | 7.32 | 5.41 | 6.12 | 6.27 | 9.22 | 6.77 | COc1ccc(CNCC2(N3CCN(C(=O)[C@H]4CN(C(C)C)C[C@@H]4c4ccc(Cl)cc4)CC3)CCCCC2)cc1F
